Like-named read-outs stand apart in the source and are kept apart here.
Columns and labels:
Ustilago maydis (USTIMA) = assay: microbe, parasite or virus in culture; assay type: cell-based
[1] = test system: Rhizoctonia solani (RHIZSO); assay: microbe, parasite or virus in culture; assay type: cell-based
[2] = test system: Leptosphaeria nodorum—LEPTNO; assay: Glume Blotch of Wheat, in vivo whole plant, 24 Hour Protectant; conditions: Leptosphaeria, 24 h, inoculated after 24 hours, read-out: LEPTNO in vivo 1 Day Protectant
[3] = test system: Puccinia recondita—PUCCRT; assay: Brown Rust of Wheat, in vivo whole plant, 24 Hour Protectant; conditions: Puccinia; wheat (cultivar Yuma), sprayed at 100 ppm, inoculated after 24 hours; control of fungal infection vs untreated plants; read-out: PUCCRT in vivo 1 Day Protectant
[4] = wheat (cultivar Yuma), sprayed at 100 ppm, control of fungal infection vs untreated plants
[5] = wheat plants sprayed at 100 ppm, control vs untreated plants

Compound: COc1ccnc(C(=O)NC(C)c2ccc(Cl)cc2)c1O (stereo not shown) [Compound 246]
- USTIMA in vitro Growth Inhibition (Ustilago maydis (USTIMA)): − (key: +: at least 80% growth inhibition; −: less than 80% growth inhibition)
- RHIZSO in vitro Growth Inhibition [1]: − (key: +: at least 80% growth inhibition; −: less than 80% growth inhibition)
- pest or weed control at 100 ppm [2, 4]: 75 to 100%

Compound: COc1ccnc(C(=O)NC2CC(C)(C)CC3(C2)CC3(F)F)c1O (stereo not shown) [Compound 255]
- USTIMA in vitro Growth Inhibition (Ustilago maydis (USTIMA)): − (key: +: at least 80% growth inhibition; −: less than 80% growth inhibition)
- RHIZSO in vitro Growth Inhibition [1]: − (key: +: at least 80% growth inhibition; −: less than 80% growth inhibition)
- pest or weed control at 100 ppm [2, 4]: 75 to 100%

Compound: COc1ccnc(C(=O)NC2CC(C)(C)CC(C)(COCC(Cl)CCl)C2)c1O (stereo not shown) [Compound 257]
- USTIMA in vitro Growth Inhibition (Ustilago maydis (USTIMA)): + (key: +: at least 80% growth inhibition; −: less than 80% growth inhibition)
- RHIZSO in vitro Growth Inhibition [1]: − (key: +: at least 80% growth inhibition; −: less than 80% growth inhibition)
- pest or weed control at 100 ppm [2, 4]: 75 to 100%

Compound: COc1ccnc(C(=O)N[C@H]2CC[C@H](Oc3ccc(C(F)(F)F)cc3)CC2)c1O [Compound 270]
- USTIMA in vitro Growth Inhibition (Ustilago maydis (USTIMA)): + (key: +: at least 80% growth inhibition; −: less than 80% growth inhibition)
- RHIZSO in vitro Growth Inhibition [1]: + (key: +: at least 80% growth inhibition; −: less than 80% growth inhibition)
- pest or weed control at 100 ppm [2, 4]: 75 to 100%

Compound: COc1ccnc(C(=O)NC2CC(C)(C)CC(C)(C(=O)CCCc3ccccc3)C2)c1O (stereo not shown) [Compound 276]
- USTIMA in vitro Growth Inhibition (Ustilago maydis (USTIMA)): − (key: +: at least 80% growth inhibition; −: less than 80% growth inhibition)
- RHIZSO in vitro Growth Inhibition [1]: − (key: +: at least 80% growth inhibition; −: less than 80% growth inhibition)
- pest or weed control at 100 ppm [2, 4]: 75 to 100%

Compound: COc1ccnc(C(=O)N[C@H]2CC[C@H]3C4CCC(CC4)[C@H]3C2=O)c1O [Compound 292]
- USTIMA in vitro Growth Inhibition (Ustilago maydis (USTIMA)): − (key: +: at least 80% growth inhibition; −: less than 80% growth inhibition)
- RHIZSO in vitro Growth Inhibition [1]: − (key: +: at least 80% growth inhibition; −: less than 80% growth inhibition)
- pest or weed control at 100 ppm [2, 4]: 75 to 100%

Compound: COc1ccnc(C(=O)N[C@H]2CC3CC2[C@H](COCc2cccc(C(F)(F)F)c2)C3)c1O (stereo partly shown) [Compound 294]
- USTIMA in vitro Growth Inhibition (Ustilago maydis (USTIMA)): − (key: +: at least 80% growth inhibition; −: less than 80% growth inhibition)
- RHIZSO in vitro Growth Inhibition [1]: + (key: +: at least 80% growth inhibition; −: less than 80% growth inhibition)
- pest or weed control at 100 ppm [2, 4]: 75 to 100%

Compound: COc1ccnc(C(=O)NC2CSCC(c3ccccc3)C2)c1O (stereo not shown) [Compound 324]
- USTIMA in vitro Growth Inhibition (Ustilago maydis (USTIMA)): + (key: +: at least 80% growth inhibition; −: less than 80% growth inhibition)
- RHIZSO in vitro Growth Inhibition [1]: + (key: +: at least 80% growth inhibition; −: less than 80% growth inhibition)
- pest or weed control at 100 ppm [2, 4]: 75 to 100%

Compound: COc1ccnc(C(=O)N[C@H]2[C@@H](OC(C)=O)O[C@H](COC(C)=O)[C@@H](OC(C)=O)[C@@H]2OC(C)=O)c1O [Compound 335]
- USTIMA in vitro Growth Inhibition (Ustilago maydis (USTIMA)): − (key: +: at least 80% growth inhibition; −: less than 80% growth inhibition)
- RHIZSO in vitro Growth Inhibition [1]: − (key: +: at least 80% growth inhibition; −: less than 80% growth inhibition)

Compound: COc1ccnc(C(=O)N[C@@H](Cc2ccc(OCc3ccccc3)cc2)C(=O)O)c1O [Compound 337]
- USTIMA in vitro Growth Inhibition (Ustilago maydis (USTIMA)): − (key: +: at least 80% growth inhibition; −: less than 80% growth inhibition)
- RHIZSO in vitro Growth Inhibition [1]: − (key: +: at least 80% growth inhibition; −: less than 80% growth inhibition)
- pest or weed control at 100 ppm [2, 4]: 75 to 100%

Compound: COC(=O)C(CO)NC(=O)c1nccc(OC)c1O (stereo not shown) [Compound 340]
- USTIMA in vitro Growth Inhibition (Ustilago maydis (USTIMA)): − (key: +: at least 80% growth inhibition; −: less than 80% growth inhibition)
- RHIZSO in vitro Growth Inhibition [1]: − (key: +: at least 80% growth inhibition; −: less than 80% growth inhibition)

Compound: COc1ccnc(C(=O)N[C@@H](CO)C(=O)O[C@@H](C)[C@H](OC(=O)C(C)C)[C@@H](Cc2ccccc2)C(=O)O)c1O [Compound 341]
- USTIMA in vitro Growth Inhibition (Ustilago maydis (USTIMA)): − (key: +: at least 80% growth inhibition; −: less than 80% growth inhibition)
- RHIZSO in vitro Growth Inhibition [1]: − (key: +: at least 80% growth inhibition; −: less than 80% growth inhibition)

Compound: COc1ccnc(C(=O)N[C@@H](COCc2ccccc2)C(=O)O[C@@H](C)[C@H](OC(=O)C(C)C)[C@@H](Cc2ccccc2)C(=O)OCc2ccccc2)c1O [Compound 342]
- pest or weed control at 100 ppm [3]: 75 to 100%

Compound: COC(=O)C(COC(=O)C(COC(=O)C(C)C)Cc1ccccc1)NC(=O)c1nccc(OC)c1O (stereo not shown) [Compound 349]
- pest or weed control at 100 ppm [3]: 75 to 100%

Compound: COc1ccnc(C(=O)NC(COC(=O)C(C)Cc2ccccc2)C(=O)OC(C)C)c1O (stereo not shown) [Compound 351]
- pest or weed control at 100 ppm [3]: 75 to 100%

Compound: COc1ccnc(C(=O)NC(COC(=O)CC(C)OC(=O)CCc2ccccc2)C(=O)OC(C)C)c1O (stereo not shown) [Compound 353]
- pest or weed control at 100 ppm [3]: 75 to 100%

Compound: COc1ccnc(C(=O)NC(COC(=O)CC(C)O[Si](C)(C)C(C)(C)C)C(=O)OC(C)C)c1O (stereo not shown) [Compound 354]
- pest or weed control at 100 ppm [3]: 75 to 100%

Compound: COc1ccnc(C(=O)NC(COC(=O)C(Cc2ccccc2)C(C)O[Si](C)(C)C(C)(C)C)C(=O)OC(C)C)c1O (stereo not shown) [Compound 357]
- pest or weed control at 100 ppm [3]: 75 to 100%

Compound: COc1ccnc(C(=O)NC(C(=O)OCC(C)C)C(C)OC(=O)C(C)Cc2ccccc2)c1O (stereo not shown) [Compound 360]
- pest or weed control at 100 ppm [2, 4]: 75 to 100%

Compound: COc1ccnc(C(=O)N[C@H](C(=O)O[C@@H](C)[C@H](OC(=O)C(C)C)[C@@H](Cc2ccccc2)C(=O)OCc2ccccc2)[C@@H](C)OC(C)=O)c1O [Compound 361]
- pest or weed control at 100 ppm [3]: 75 to 100%

Compound: COc1ccnc(C(=O)N[C@H]2COC(=O)[C@H](Cc3ccccc3)C[C@H](C)OC2=O)c1O [Compound 382]
- pest or weed control at 100 ppm [2, 4]: 75 to 100%

Compound: COc1ccnc(C(=O)N[C@H]2COC(=O)[C@H](Cc3ccccc3)[C@@H](OC(C)=O)[C@H](C)OC2=O)c1O [Compound 385]
- pest or weed control at 100 ppm [2, 4]: 75 to 100%

Compound: C=C(C)C(=O)O[C@H]1[C@H](C)OC(=O)[C@@H](NC(=O)c2nccc(OC)c2O)COC(=O)[C@@H]1Cc1ccccc1 [Compound 386]
- pest or weed control at 100 ppm [2, 4]: 75 to 100%

Compound: COc1ccnc(C(=O)N[C@H]2COC(=O)[C@H](Cc3ccccc3)[C@@H](OC(=O)C3CC3)[C@H](C)OC2=O)c1O [Compound 387]
- pest or weed control at 100 ppm [2, 4]: 75 to 100%

Compound: COc1ccnc(C(=O)N[C@H]2COC(=O)[C@H](Cc3ccccc3)[C@@H](OC(=O)C(C)(C)C)[C@H](C)OC2=O)c1O [Compound 388]
- pest or weed control at 100 ppm [2, 4]: 75 to 100%

Compound: COc1ccnc(C(=O)N[C@H]2COC(=O)[C@H](Cc3ccccc3)[C@@H](OC(=O)C3CCCC3)[C@H](C)OC2=O)c1O [Compound 391]
- pest or weed control at 100 ppm [2, 4]: 75 to 100%

Compound: COc1ccnc(C(=O)N[C@H]2COC(=O)[C@H](Cc3ccccc3)[C@@H](OC(=O)C3CCCCC3)[C@H](C)OC2=O)c1O [Compound 392]
- pest or weed control at 100 ppm [2, 4]: 75 to 100%

Compound: COc1ccnc(C(=O)N[C@H]2COC(=O)[C@H](Cc3ccccc3)[C@@H](OC(=O)c3ccccc3)[C@H](C)OC2=O)c1O [Compound 394]
- pest or weed control at 100 ppm [2, 4]: 75 to 100%

Compound: COc1ccnc(C(=O)N[C@H]2COC(=O)[C@H](Cc3ccccc3)[C@@H](OC(=O)NC(C)C)[C@H](C)OC2=O)c1O [Compound 399]
- pest or weed control at 100 ppm [2, 4]: 75 to 100%

Compound: COc1ccnc(C(=O)N[C@H]2COC(=O)[C@H](Cc3ccccc3)[C@@H](OC(=O)NC(C)(C)C)[C@H](C)OC2=O)c1O [Compound 400]
- pest or weed control at 100 ppm [2, 4]: 75 to 100%

Compound: COc1ccnc(C(=O)N[C@H]2COC(=O)[C@H](Cc3ccccc3)[C@@H](OC(=O)OC(C)C)[C@H](C)OC2=O)c1O [Compound 401]
- pest or weed control at 100 ppm [2, 4]: 75 to 100%

Compound: COc1ccnc(C(=O)N[C@H]2COC(=O)[C@H](Oc3ccccc3)[C@@H](OC(=O)C(C)C)[C@H](C)OC2=O)c1O [Compound 403]
- pest or weed control at 100 ppm [2, 4]: 75 to 100%

Compound: CO/N=C(/c1ccc(NC(=O)c2nccc(OC)c2O)cc1)c1ccc(C(F)(F)F)cc1 [Compound 409]
- pest or weed control at 100 ppm [2, 4]: 75 to 100%

Compound: COc1ccnc(C(=O)Nc2ccc(Oc3ccc(C)cc3)cc2)c1O [Compound 417]
- pest or weed control at 100 ppm [2, 4]: 75 to 100%

Compound: COc1ccnc(C(=O)Nc2cccc(Oc3ccc(Cl)cc3)c2)c1O [Compound 440]
- pest or weed control at 100 ppm [2, 4]: 75 to 100%

Compound: COc1ccnc(C(=O)Nc2ccc(Sc3cccc(C(F)(F)F)c3)cc2)c1O [Compound 445]
- pest or weed control at 100 ppm [2, 4]: 75 to 100%

Compound: COc1ccnc(C(=O)Nc2ccc(OCc3ccc(C(F)(F)F)cc3)cc2)c1O [Compound 448]
- pest or weed control at 100 ppm [2, 4]: 75 to 100%

Compound: COc1ccnc(C(=O)Nc2ccc(OC3CC(C)(C)CC(C)(C)C3)cc2)c1O [Compound 458]
- pest or weed control at 100 ppm [2, 5]: 75 to 100%

Compound: COc1ccnc(C(=O)Nc2ccc(OC3CC(C)(C)OC(C)(C)C3)cc2)c1O [Compound 459]
- pest or weed control at 100 ppm [2, 5]: 75 to 100%

Compound: CC(C)C(=O)O[C@H]1[C@H](C)OC(=O)[C@@H](NC(=O)c2ccncc2O)COC(=O)[C@@H]1Cc1ccccc1 [Compound 513]
- pest or weed control at 100 ppm [2, 5]: 75 to 100%

Compound: O=C(Nc1ccc(Oc2ccccc2)cc1)c1cccnc1O [Compound 522]
- pest or weed control at 100 ppm [2, 5]: 75 to 100%

Compound: Cc1ccc(C(=O)N[C@H]2COC(=O)[C@H](Cc3ccccc3)[C@@H](OC(=O)C(C)C)[C@H](C)OC2=O)c(O)n1 [Compound 525]
- pest or weed control at 100 ppm [2, 5]: 75 to 100%

Compound: CC(C)C(=O)O[C@H]1[C@H](C)OC(=O)[C@@H](NC(=O)c2nccnc2O)COC(=O)[C@@H]1Cc1ccccc1 [Compound 534]
- pest or weed control at 100 ppm [2, 5]: 75 to 100%

Compound: Cc1nc(O)c(C(=O)N[C@H]2COC(=O)[C@H](Cc3ccccc3)[C@@H](OC(=O)C(C)C)[C@H](C)OC2=O)nc1C [Compound 536]
- pest or weed control at 100 ppm [2, 5]: 75 to 100%

Compound: COc1nc(O)c(C(=O)N[C@H]2COC(=O)[C@H](Cc3ccccc3)[C@@H](OC(=O)C(C)C)[C@H](C)OC2=O)nc1Cl [Compound 537]
- pest or weed control at 100 ppm [2, 5]: 75 to 100%

Compound: CC(C)C(=O)O[C@H]1[C@H](C)OC(=O)[C@@H](NC(=O)c2nscc2O)COC(=O)[C@@H]1Cc1ccccc1 [Compound 550]
- pest or weed control at 100 ppm [2, 5]: 75 to 100%

From patent US7034035B2, “Fungicidal mono-, bi-, and tri-cycloheteroalkyl amides and their compositions, methods of use and preparation” (priority 1999, dated 2006)
